Where two headings read alike, the source gives them in different places.
Experiments:
L0 CSCs = assay: 7-day CTG viability assay (GI50, cross-titrations) in L0; type: cell-based; details: Homo sapiens; L0, 7-day CTG; pGI50 = −log10[GI50(M)]
Description: (§1) For GI50 determination, compounds were stamped in technical triplicate, while for synergy cross-titrations dose-response matrices were prepared in technical duplicate. Different CSC lines, grown in suspension as spheroids, were split with Accutase and seeded directly on top of the prestamped compounds (50 μL of NBMc and 700 cells/well). The outer 4 rows (A,B and O,P row IDs) and 4 columns (1,2 and 23,24 column IDs) were filled with 80 μL of PBS to minimize evaporation. Cells were incubated with compounds for 7 days at 37°C/5% CO2 prior to the addition of 25 μL/well Cell-Titer Glo (Promega) and luminescence quantification on a Revvity EnVision plate reader. […] For the cross-titrations of 2 compounds, synergy scores were calculated using the MuSyC webserver ([79]).

[1] = MDCK passive permeability; type: in vitro ADME, canine; details: dog, MDCK
L1 CSCs = assay: 7-day CTG viability assay (GI50, cross-titrations, irradiation) in L1; type: cell-based, human; details: for GI50: Homo sapiens; for log(GI50): L1 + RAD (2 Gy)
Description: as §1, with “([79]). […]” for “([79]).”
(§2) antagonist (p53 activator) RG7112 following either 0 Gy or 2 Gy irradiation. Mean values are presented from a single biological replicate conducted in technical triplicate. Follow- […]
(§3) Cell viability was quantified as described in the Materials and Methods four days post-irradiation (seven days total). The

L2 CSCs = assay: 7-day CTG viability assay (GI50, cross-titrations, irradiation) in L2; type: cell-based, human; details: for GI50: Homo sapiens
Description: as §1, with “([79]). […]” for “([79]).”
as §2, §3

[2] = Plasma protein binding (equilibrium dialysis), human; type: in vitro ADME
Description: Plasma Protein and Brain Homogenate Binding: Plasma protein binding assays in human and rat plasma were performed using equilibrium dialysis method and a fast gradient elution LC-MS/MS to estimate the percent of compound which binds to protein over a 4.5 hour incubation period at 37 °C, while undergoing orbital shaking. Assay was performed using a HT dialysis micro equilibrium device using dialysis membrane strips. A time 0 sample was taken after protein matrix is created and samples were taken from […]
both the protein side and buffer side of the membrane after incubation and the parent compound was quantified. Brain homogenate binding was performed similarly as above using human brain homogenate, equilibrium dialysis, and LC-MS/MS methods. Fraction unbound is calculated by dividing the concentration of the buffer side by the concentration of the matrix side (plasma or brain). […]

3832 CSCs = assay: 7-day CTG viability assay (GI50, cross-titrations, irradiation) in 3832; type: cell-based, human
Description: as §1, with “([79]). […]” for “([79]).”
as §2, §3

[3] = In vivo intraperitoneal plasma:brain level (PBL) studies; design: species or system mice; details: for Kp: male
Description: In Vivo Intraperitoneal Plasma:Brain Level (PBL) Studies
Core (RMPC) at the Vanderbilt University Medical Center (VUMC) Metabolic Physiology Shared Resource Core (MPSR). The studies were performed according to guidelines […]
approved by the Institutional Animal Care and Use Committee (IACUC) of VUMC following the guidance of the Association for Assessment and Accreditation of Laboratory Animal Care (AAALAC). Male CD-1 mice (Charles River Laboratories, Wilmington, MA) were overnight fasted on the evening prior to study. On the morning of study mice were weighed and allowed to acclimate to the room for at least 30 minutes prior to dosing.
Food was returned 3 hr after intraperitoneal dosing. At time zero IP of test article was given (20% β-HPCD, 1-10 mg/mL with addition of 1N HCl per molar equivalent of test article, N=8 mice, two per timepoint). At 0.5, 1, 3, and 6 h post-dose, mice were placed into a plane of anesthesia using Isoflurane. A terminal blood sample was collected via cardiac puncture followed by immediate euthanasia and brain collection. Brain was washed with cold PBS or Saline, blotted dry on a piece of gauze, weighed, and flash frozen in liquid nitrogen. Whole blood was centrifuged at 5000 x g for 5 minutes and plasma was removed into a fresh tube for storage. All samples were stored at -80 °C until shipment on dry ice for bioanalysis at Q2 Solutions. […]
conducted at Medicilon Inc. DMPK (CRO, Shanghai) using a similar protocol as above using modified timepoints (5 min, 15 min, 30 min, 1, 3, and 8 h), male ICR mice, and a […]
cyclodextrin). The blood was taken via submandibular vein or other suitable vein, 0.03 mL/time point. Samples were placed in tubes containing K2-EDTA and stored on ice until centrifuged. The blood samples were centrifuged at 6800 x g for 6 minutes at 2-8°C within 1h after collection and stored frozen at -80°C. After blood sample collection, the brain was removed, rinsed with saline, dried with filter paper, placed into labeled EP tubes (1 tube/tissue/animal/time point, and frozen at -80°C prior to bioanalysis. The analytical […]
results were validated using a calibration curve to lower limit of quantification of 2 ng/mL for parent analyte with tolbutamide as an internal standard. […]

[4] = Microsomal intrinsic clearance, human; type: in vitro ADME; details: for CLint scaled at 1 µM: pooled liver microsomes, human microsomes; for Pred CLhep (h): scaled predicted hepatic clearance, human
Description: SUPPLEMENTAL DMPK METHODS
All in vitro DMPK screening assays were performed at Q2 Solutions, Inc. (Indianapolis,
IN, USA). Microsomal Intrinsic Clearance: Test compounds (1 µM) were incubated
with 1 mg/mL of pooled liver microsomes in phosphate buffer at 37 °C. Samples were
taken at 0, 5, 10, 15, 30 and 45 min and analyzed by LC-MS. Testosterone was used as
the positive control. Two replicates were obtained and average CLint values are reported. […]

[5] = L1, 0 Gy, read-out: log(GI50) (converted)
[6] = L1, 7-day CTG, pGI50 = −log10[GI50(M)], read-out: pGI50 (converted)
[7] = L2, 0 Gy, read-out: log(GI50) (converted)
[8] = L2, 7-day CTG, pGI50 = −log10[GI50(M)], read-out: pGI50 (converted)
[9] = human plasma, read-out: PPB % fu (h)
[10] = summary of Table 1, read-out: free fraction
[11] = Homo sapiens, 3832 + RAD (2 Gy), read-out: log(GI50) (converted)
[12] = Homo sapiens, […], 3832, 7-day CTG, pGI50 = −log10[GI50(M)], read-out: pGI50 (converted)
[13] = CD-1 (C3TD343), ICR (C3TD078), mouse, brain, intraperitoneal, 100 mg/kg, 100 mg/kg i.p., mice, read-out: P:B
[14] = Homo sapiens, 3832, 0 Gy, read-out: log(GI50) (converted)

| SMILES | GI50 (L0 CSCs) [M] | Papp A→B [1] [×10⁻⁶ cm/s] | Papp A→B ([1]; favorable permeability) [×10⁻⁶ cm/s] | GI50 (L1 CSCs; [5]) [M] | GI50 (L1 CSCs; [6]) [M] | log(GI50) (L1 CSCs) [M] | GI50 (L2 CSCs; [7]) [M] | GI50 (L2 CSCs; [8]) [M] | fraction unbound at […] [2, 9] | fraction unbound at […] [2, 10] | GI50 (3832 CSCs; [11]) [M] | GI50 (3832 CSCs; [12]) [M] | Kp [3, 13] | CLint scaled at 1 µM [4] [mL/min/kg] | Pred CLhep (h) [4] [mL/min/kg] | GI50 (3832 CSCs; [14]) [M] | also measured |
| --- | --- | --- | --- | --- | --- | --- | --- | --- | --- | --- | --- | --- | --- | --- | --- | --- | --- |
| COc1cc(Cn2nnc3c2CCc2c(-c4cn(C)nc4C(F)(F)F)cc(Cn4ccnc4C)cc2-3)cc(OC)c1 [C3TD078] | 1.26e-06 | 4.9 | > 2 | 5.01e-06 | 5.01e-06 | -5.3 | 5.01e-06 | 3.98e-06 | 0.016 | ~0.02 | 1.26e-06 | 2e-06 | < 0.05 | 1200 | 20.6 |  |  |
| COc1cc(Cn2nnc3c2CCc2c-3cc(Cn3ccnc3C)cc2C2CC2)ccc1F [C3TD343] | 5.5e-06 | 5.2 | > 2 | 7.94e-06 | 8.32e-06 | -5.1 |  | 6.31e-06 | 0.007 | ~0.02 | 3.16e-06 | 2.51e-06 | 0.25 | 710 | 20.3 | 3.16e-06 | GI50 (L2 CSCs; L2 + RAD (2 Gy), read-out: log(GI50) (converted)): 7.94e-06 M; total brain AUC ([3]; 100 mg/kg i.p., mice): 2.9 µM·h; total brain Cmax ([3]; 100 mg/kg i.p., mice): 2.4 µM; duration of brain exposure ([3]; i.p., mice): less than 4 hours |
| COc1cc(CN2CCc3c(cc(Cn4ccn(C)c4=N)cc3-c3ccc(F)cc3C)C2=O)cc(OC)c1 [C16, reference compound] | 5.01e-07 | 0.1 |  | 1.26e-05 | 1.26e-05 | -4.9 | 2e-06 | 3.98e-06 | 0.003 |  |  |  |  | 155 | 18.3 | 1e-06 | log(GI50) (L2 CSCs; L2 + RAD (2 Gy)): -5.7 M; fraction unbound at […] ([2]; summary of Table 1, read-out: plasma protein binding): < 0.01; log(GI50) (3832 CSCs; 3832 + RAD (2 Gy)): -6.0 M; GI50 (3832 CSCs; Homo sapiens, 3832, 7-day CTG, pGI50 = −log10[GI50(M)], read-out: pGI50 (converted)): 8.32e-07 M; Cmax brain ([3]; 10 mg/kg IP, male mice): 0.102 µM; AUC brain ([3]; 10 mg/kg IP, male mice, 6 hrs interval): 0.357 µM·h; Tmax ([3]; CD-1, mouse, brain, 10 mg/kg IP, male mice, read-out: Tmax brain): 30 min; Cmax ([3]; CD-1, mouse, plasma, 10 mg/kg IP, male mice): 14.2 µM; AUC ([3]; CD-1, mouse, plasma, 10 mg/kg IP, male mice, 6 hrs interval): 11.9 µM·h; Tmax ([3]; CD-1, mouse, plasma, 10 mg/kg IP, male mice, read-out: Tmax plasma): 30 min; Kp ([3]; CD-1, mouse, brain, ip, 10 mg/kg, C16 10 mg/kg IP, male mice, read-out: brain/plasma ratio P:B (AUC)): < 0.05 |

Source: publication PMC13313556, “Development and characterization of triazole-based WDR5 inhibitors for the treatment of glioblastoma” (JCI Insight, 2026)
